Measured values: patent publication EP4559916A1, “PHARMACEUTICALLY ACCEPTABLE SALT AND POLYMORPH OF SUBSTITUTED PYRAZOLO[1,5-A]PYRIMIDIN-7-AMINE DERIVATIVE AND USE THEREOF” (Shanghai Haiyan Pharmaceutical Technology Co., Ltd., priority 2022, dated 2024)

Experiments:
[1] = tested on: MV4 -11 acute myeloid leukemia; assay: In vivo pharmacodynamic experiment, MV4-11 subcutaneous xenograft; set-up: species or system BALB/c nude mice; details: Oral, Once daily
Method: In vivo pharmacodynamic experiments were performed on BALB/c nude mice subcutaneously implanted with MV4 -11 acute myeloid leukemia […] xenograft (CDX) based on human tumor cell lines.
Protocol: BALB/c nude mice, female, 6-10 weeks old, weighing approximately 20-23 grams, were maintained in a special pathogen-free environment and in individual ventilated cages (5 mice per cage, 2 cages of 10). All cages, bedding and water were disinfected prior to use. All animals had free access to standard certified commercial laboratory diets. […] Each mouse was implanted with tumor cells subcutaneously in the right flank (1×10^7 0.1 ml+Matrigel 0.1 ml) for tumor growth. When the average tumor volume reached about 165 cubic mm, randomization was performed according to body weight and tumor volume, and administration was started. The test compound was administered orally by gavage daily. Antitumor efficacy was determined by dividing the average tumor increase volume of animals treated with the compound by the average tumor increase volume of untreated animals.
Tumor volume was measured twice weekly with a two-dimensional caliper, and volumes were measured in cubic millimeters. Tumor volume TV=0.5a×b^2. Wherein, a is the long diameter of the tumor and b is the short diameter of the tumor.
T/C(%) is the percentage of the relative tumor volume (RTV) between the treatment group and the control group at a certain time point. The calculation Formula is as follows: T/C% = TRTV/CRTV×100% (TRTV: mean RTV of treatment group; CRTV: mean RTV of vehicle control group; RTV=Vt/V0, V0 is tumor volume of the animal at grouping, Vt is tumor volume of the animal after treatment). mpk is mg/kg body weight.
Body weight change (%) of tumor-bearing animals was calculated as follows: (body weight at measurement - body weight at grouping)/body weight at grouping × 100.

[2] = In vivo pharmacokinetic test in mice; details: male ICR mice, gavage administration 10 mg/kg
Method: Test animals: healthy adult male ICR mice (weighing 30-40 g, 12 mice, intravenous injection group mice drinking water and diet ad libitum, gavage group fasting overnight, drinking water and diet ad libitum 4 h after administration), provided by Beijing Vital River Laboratory Animal Co. LTD;
Administration method and dosage: ICR mice were administered via caudal vein administration (2 mg/kg, 5% DMSO, pH 4.5 20% Captisol) and gavage administration (10 mg/kg, 5% DMSO, pH 4.5 20% Captisol).
Blood sampling: Animals meeting the experimental requirements were selected prior to administrating, weighed and labeled. Mice were bound prior to blood sampling, and each administrated mice was bled at a predetermined time point (caudal vein administration: blood samples were collected at 0.083 h, 0.25 h, 0.5 h, 1 h, 2 h, 4 h, 6 h, 7.5 h and 24 h after administration, totally 9 time points; gavage administration: blood samples were collected at 0.083 h, 0.25 h, 0.5 h, 1 h, 2 h, 4 h, 6 h, 7.5 h and 24 h after administration, totally 9 time points), and about 100 µL blood samples were collected through the orbit. The blood was transferred to a 1.5 mL test tube pre-added with K2EDTA, centrifuged for 4 min (8000 rpm, 4°C), and the plasma was removed. The whole process was completed within 15 min after blood collection. All samples were stored in a refrigerator at -20°C until sample analysis. LC/MS/MS method was used to determine drug concentrations.

[3] = Stability test: changes in crystal form (XRPD) under high temperature and accelerated conditions; type: physicochemical; details: for changes in crystal form: 60°C (high temperature) and 40°C to 75% RH (accelerated), day 7, day 20, day 30, day 60
Method: X-ray powder diffraction (XRPD): in the present disclosure, the above crystalline or amorphous powder X-ray diffraction pattern was obtained by a known method in the art using an ARL Equinox3000 X-ray powder diffraction analyzer.
(§1) The changes in crystal form were detected at day 7, day 20, day 30, and day 60, respectively. […] (2) About 40 mg of phosphate crystal form I (prepared with reference to Example 1 of the present application) was weighed into a glass vial , and ethanol (1 mL) was added thereto, the glass vial was sealed and shaken at 50°C and 150 r/min for seven days, then centrifuged to collect the solid and the solvent was evaporated. […] Samples were taken and the related substances were determined. […]

[4] = Rough solubility in pH 4.5 and pH 6.8 buffers at room temperature; type: physicochemical
[5] = Hygroscopicity test according to Chinese Pharmacopoeia 2020, volume IV, 9103; type: physicochemical
Excerpt: (§2) Chinese Pharmacopoeia 2020, volume IV, 9103 Guidelines for Hygroscopicity Test of Drugs specifies the definition of hygroscopicity characteristics and hygroscopicity weight gain: (1) deliquescence: absorbing sufficient water to form a liquid; (2) extremely hygroscopicity: hygroscopicity weight gain of not less than 15%; (3) hygroscopicity: hygroscopicity weight gain of less than 15% but not less than 2%; (4) slightly hygroscopicity: hygroscopicity weight gain of less than 2% but not less than 0.2%; (5) no or almost no hygroscopicity: moisture gain is less than 0.2%.

[6] = Dynamic vapor sorption (DVS) measurement; type: physicochemical; details: for weight gain due to moisture absorption: DVS, 80% RH, 25°C; for hygroscopicity: from DVS weight gain at 80% RH
Method: Dynamic vapor sorption (DVS) curve: a dynamic vapor sorption curve was collected on a DVS Intrinsic of SMS (Surface Measurement Systems). The relative humidity at 25°C was calibrated using the deliquescent points of LiCl, Mg(NO3)2 and KCl.
as §2

[7] = Solubility in 0.1 mol/L hydrochloric acid and pH 6.8 phosphate buffer, 24 h at 37°C; type: physicochemical; details: for solubility: 1440 min
[8] = Chemical stability: related substances after 80°C for one week with water added; type: physicochemical; details: for Phosphate content (80°C, 7 d): 25 mg sample with 5 mg water, oven at 80°C
[9] = Crystal form conversion: suspension shaking in ethanol; type: physicochemical; details: ethanol (1 mL), sealed, shaken at 50°C and 150 r/min for seven days
Method: as §1

CDK9/CycT = target: T1, CDK9/CycT (Homo sapiens, UniProt P50750); assay: LANCE Ultra kinase activity inhibition test, CDK9; type: biochemical; details: ATP 10 µM
T1 construct: purchased Carna Bioscience 04-110
T1 sequence (P50750 whole entry): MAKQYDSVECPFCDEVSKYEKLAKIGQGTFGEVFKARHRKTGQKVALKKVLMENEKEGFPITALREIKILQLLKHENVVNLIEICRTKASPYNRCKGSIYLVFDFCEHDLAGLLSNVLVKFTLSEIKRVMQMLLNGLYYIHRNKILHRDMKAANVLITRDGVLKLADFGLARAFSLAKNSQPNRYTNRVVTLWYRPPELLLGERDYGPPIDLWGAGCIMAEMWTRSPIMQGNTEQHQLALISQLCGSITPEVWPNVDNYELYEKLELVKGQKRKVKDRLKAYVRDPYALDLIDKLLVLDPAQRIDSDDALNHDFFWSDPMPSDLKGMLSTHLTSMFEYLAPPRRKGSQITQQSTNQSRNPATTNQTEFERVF
T1 sequence (O60563 whole entry partner): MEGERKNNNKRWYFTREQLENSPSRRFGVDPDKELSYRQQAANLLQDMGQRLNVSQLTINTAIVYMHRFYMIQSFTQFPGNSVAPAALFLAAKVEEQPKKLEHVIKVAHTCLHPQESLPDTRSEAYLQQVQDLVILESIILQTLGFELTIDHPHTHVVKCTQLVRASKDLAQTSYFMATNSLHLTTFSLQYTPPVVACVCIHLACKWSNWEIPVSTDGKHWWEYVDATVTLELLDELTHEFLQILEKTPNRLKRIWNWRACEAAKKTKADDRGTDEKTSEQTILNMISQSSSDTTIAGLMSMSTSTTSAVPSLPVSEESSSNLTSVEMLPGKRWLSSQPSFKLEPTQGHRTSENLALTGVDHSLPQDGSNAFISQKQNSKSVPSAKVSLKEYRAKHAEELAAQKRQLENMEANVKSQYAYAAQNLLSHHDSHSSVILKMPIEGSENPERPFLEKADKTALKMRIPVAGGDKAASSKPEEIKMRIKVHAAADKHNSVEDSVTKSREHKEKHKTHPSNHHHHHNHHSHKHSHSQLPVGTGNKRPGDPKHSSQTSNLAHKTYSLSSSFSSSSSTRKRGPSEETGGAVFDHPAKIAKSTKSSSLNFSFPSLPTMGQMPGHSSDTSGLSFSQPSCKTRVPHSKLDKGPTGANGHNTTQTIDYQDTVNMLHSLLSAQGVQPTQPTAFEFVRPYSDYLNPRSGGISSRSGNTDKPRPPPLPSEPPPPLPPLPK
Excerpt: In the following LANCE Ultra test method, kinase reagents were purchased from Carna Bioscience, reaction substrates and detection reagents were purchased from Perkin Elmer, and the remaining reagents were purchased from Thermo scientific.
The LANCE Ultra method was used to determine the inhibitory effect of the test substance on the kinase activity of CDK1/CycB (Carna bioscience, #04-102), CDK2/ CycA (Carna bioscience, #04-103), CDK9/CycT (Carna bioscience, #04-110).
Each kinase in the test included three test groups: background group (Blank), non-inhibition group (PC) and compound test group (Test). […]
After the addition of the test solution, it was placed on a shaker and incubated at room temperature for 1 h in the dark. […] The 665 nm/615 nm values (hereinafter referred to as the Ratio value) were calculated for all groups, and the inhibition rate was calculated based on the Ratio value of each group; 2. […] XLFIT 5.0 software (IDBS, UK) was used for fitting, with logarithmic values of compound concentrations as the X axis and inhibition rates as the Y axis, and IC50 values of compounds were calculated using a four-parameter model.

physchem = details: water
[10] = listed as phosphate crystal form II of the compound of Formula (I)
[11] = listed as phosphate crystal form I of the compound of Formula (I)

## CCC(CC)c1cc(N[C@H]2CC[C@H](N)C2)n2nccc2n1 [Compound D, reference compound]
[1]; 12.5 mpk
  Mean tumor weight: 0.35 g
  T/C: 45.04%
[1]; 25 mpk
  Mean tumor weight: 0.02 g
  T/C: 2.04%
[2]
  Area under the curve for oral administration AUC0-t: 1191 ng·h/mL
  Maximum oral plasma concentration Cmax: 433 ng/mL

## C[C@H](c1cc(N[C@H]2CC[C@H](N)C2)n2nccc2n1)C1CCC1 [L-tartrate crystal form I]
[3]
  changes in crystal form: no obvious changes
[3]; accelerated conditions (40°C-75% RH), 7 days and 2 months (60 days), FIG. 15
  change of XRPD pattern: no obvious change
[3]; high temperature conditions (60°C), 7 days and 2 months (60 days)
  change of XRPD pattern: no obvious change
[4]; rough solubility, pH 4.5 buffer (acetic acid-sodium acetate system)
  Solubility in pH 4.5 buffer: ≤43.3 mg/mL
[4]; rough solubility, pH 6.8 buffer (sodium dihydrogen phosphate-sodium hydroxide system)
  Solubility in pH 6.8 buffer: ≤21.8 mg/mL

## C[C@H](c1cc(N[C@H]2CC[C@H](N)C2)n2nccc2n1)C1CCC1 [L-tartrate]
[5]
  hygroscopicity: slight hygroscopicity

## C[C@H](c1cc(N[C@H]2CC[C@H](N)C2)n2nccc2n1)C1CCC1 [Phosphate crystal form II]
[3]
  changes in crystal form: no obvious changes
[6]
  weight gain due to moisture absorption: 0.45%
  hygroscopicity: slight hygroscopicity
[6]; [10]
  weight gain due to moisture absorption: 0.45%
  hygroscopicity: slight hygroscopicity
[7]; 0.1N HCl
  solubility: 39.14 mg/mL
[7]; pH 6.8 phosphate buffer
  solubility: 33.63 mg/mL
[8]
  Phosphate content (0 d): 99.64
  Phosphate content (80°C, 7 d): 98.73

## C[C@H](c1cc(N[C@H]2CC[C@H](N)C2)n2nccc2n1)C1CCC1 [Phosphate crystal form I]
[3]
  changes in crystal form: no obvious changes
[3]; high temperature conditions, 7 days and 30 days, Figure 16
  change of XRPD pattern: no obvious change
[9]
  crystal form of the obtained solid (XRPD): phosphate crystal form II
[6]; [11]
  weight gain due to moisture absorption: 9%
  hygroscopicity: hygroscopicity (hygroscopicity weight gain of less than 15% but not less than 2%)
[7]; 0.1n hcl
  solubility at 24 h: 22.5 mg/mL
[7]; phosphate buffer, pH 6.8, pH 6.8 phosphate buffer
  solubility at 24 h: 22.5 mg/mL
[8]
  Phosphate content (0 d): 99.64
  Phosphate content (80°C, 7 d): 98.66
[4]; acetate buffer, pH 4.5, rough solubility, pH 4.5 buffer (acetic acid-sodium acetate system), read-out: Solubility in pH 4.5 buffer
  solubility: ≤ 33 mg/mL
[4]; phosphate buffer, pH 6.8, rough solubility, pH 6.8 buffer (sodium dihydrogen phosphate-sodium hydroxide system), read-out: Solubility in pH 6.8 buffer
  solubility: ≤ 24.5 mg/mL

## C[C@H](c1cc(N[C@H]2CC[C@H](N)C2)n2nccc2n1)C1CCC1 [The compound of Formula (I), (1S,3S)-N1-(5-((S)-1-cyclobutylethyl)pyrazolo[1,5-a]pyrimidin-7-yl)cyclopentan-1,3-diamine]
[1]; 12.5 mpk
  Mean tumor weight: 0.17 g
  T/C: 21.50%
[1]; 25 mpk
  Mean tumor weight: 0.01 g
  T/C: 1.40%
CDK9/CycT
  IC50: 0.012 µM
[2]; mouse, plasma, po, read-out: Area under the curve for oral administration AUC0-t
  AUC(0-t): 2960 ng·h/mL
[2]; mouse, plasma, po, read-out: Maximum oral plasma concentration Cmax
  Cmax: 379 ng/mL

## C[C@H](c1cc(N[C@H]2CC[C@H](N)C2)n2nccc2n1)C1CCC1 [phosphate]
physchem
  solubility: ≤ 26.6 mg/mL
